Data from BindingDB's records for patent US20250313563 (The Broad Institute, 2025).
“And” between values parts separate entries of the source, which are not always exact repeats. Equal entries are not always repeated.

Tests used:
[1] = target: Glycogen synthase kinase-3 alpha (Homo sapiens, UniProt P49840); assay: TR-FRET Assay
Summary of the method: (§1)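 Kinase activity, measured after a 30-minute compound preincubation, was stopped with EDTA and quantified by TR-FRET using a Tb-labelled pSer641 antibody paired with streptavidin-d2.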

[2] = target: Glycogen synthase kinase-3 beta (Homo sapiens, UniProt P49841); assay: TR-FRET Assay
Summary of the method: as §1

Chain of Glycogen synthase kinase-3 alpha (P49840 whole entry): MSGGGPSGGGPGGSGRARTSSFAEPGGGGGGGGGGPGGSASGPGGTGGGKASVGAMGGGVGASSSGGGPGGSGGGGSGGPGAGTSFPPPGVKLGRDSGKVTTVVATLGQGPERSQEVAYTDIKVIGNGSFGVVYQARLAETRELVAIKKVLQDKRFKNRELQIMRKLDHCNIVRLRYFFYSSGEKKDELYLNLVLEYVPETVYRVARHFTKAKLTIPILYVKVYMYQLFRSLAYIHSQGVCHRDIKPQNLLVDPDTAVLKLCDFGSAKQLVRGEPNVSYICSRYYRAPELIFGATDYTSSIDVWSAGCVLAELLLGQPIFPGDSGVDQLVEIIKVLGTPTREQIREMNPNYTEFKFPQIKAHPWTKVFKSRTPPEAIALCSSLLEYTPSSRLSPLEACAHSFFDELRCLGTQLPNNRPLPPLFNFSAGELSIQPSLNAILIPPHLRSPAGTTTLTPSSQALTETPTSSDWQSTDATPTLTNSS
Chain of Glycogen synthase kinase-3 beta (P49841 whole entry): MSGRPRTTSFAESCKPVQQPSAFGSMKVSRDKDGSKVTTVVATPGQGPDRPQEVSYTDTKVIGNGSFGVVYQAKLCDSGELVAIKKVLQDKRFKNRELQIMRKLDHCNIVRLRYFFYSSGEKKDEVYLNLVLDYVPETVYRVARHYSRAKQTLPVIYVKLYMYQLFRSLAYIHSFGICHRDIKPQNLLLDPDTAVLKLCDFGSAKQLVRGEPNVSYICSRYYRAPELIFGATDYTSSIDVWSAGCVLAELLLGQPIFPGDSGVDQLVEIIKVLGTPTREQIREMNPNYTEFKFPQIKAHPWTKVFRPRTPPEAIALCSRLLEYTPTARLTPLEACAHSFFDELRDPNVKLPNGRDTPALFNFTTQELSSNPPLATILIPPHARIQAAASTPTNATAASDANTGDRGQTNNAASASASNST

| IC50 [1] | IC50 [2] | SMILES |
| --- | --- | --- |
| > 5000 nM | > 5000 nM | CC[C@]1(c2cccc(C3=C4CC=C(F)C=C4N=CC3)c2)C2=CN=NC2NC2=C1C(=O)NC(C)(C)C2 (stereo partly specified) [US20250313563, Compound 948519] |
| < 100 nM | 100 to 1000 nM | CCc1cccc(N(C)c2cccc(C3(CC)C4=CN=NC4NC4=C3C(=O)CC(C)(C)C4)c2)n1 (stereo unspecified) [US20250313563, Compound 944023] |
| 1000 to 5000 nM | > 5000 nM | CCc1cc(-c2cccc(C3(CC)C4=CN=NC4NC4=C3C(=O)CC(C)(C)C4)c2)cc(CC)n1 (stereo unspecified) [US20250313563, Compound 929445] |
| < 100 nM | 100 to 1000 nM | CC[C@@]1(c2cccc([C@H]3CCOC3)c2)C2=CN=NC2NC2=C1C(=O)CC(C)(C)C2 (stereo partly specified) [US20250313563, Compound 889558] |
| < 100 nM | < 100 nM | CCC1(c2cccc(-c3ccnc4c3CCCC4)c2)C2=CN=NC2NC2=C1C(=O)CC(C)(C)C2 (stereo unspecified) [US20250313563, Compound 932625] |
| < 100 nM and 100 to 1000 nM | 100 to 1000 nM and 1000 to 5000 nM | CC[C@@]1(c2cccc(-c3ccnc4c(F)cccc34)c2)C2=CN=NC2NC2=C1C(=O)NC(C)(C)C2 (stereo partly specified) [US20250313563, Compound 948828] |
| < 100 nM | < 100 nM | Cc1cnc2c(S(=O)(=O)N3CCC4(CC3)C3=C(N=NC3)NC3=C4C(=O)CC(C)(C)C3)cccc2c1 [US20250313563, Compound 947614] |
| < 100 nM | 100 to 1000 nM | CCC1(c2cccc(-c3cnn(C)c3C)c2)C2=CN=NC2NC2=C1C(=O)NC(C)(C)C2 (stereo unspecified) [US20250313563, Compound 944021] |
| < 100 nM | < 100 nM | COc1cccc(S(=O)(=O)N2CC[C@]3(C2)C2=C(N=NC2)NC2=C3C(=O)CC(C)(C)C2)c1 [US20250313563, Compound 951790] |
| < 100 nM | < 100 nM and 100 to 1000 nM | CCC1(c2cccc(-c3ccnc(C)c3C)c2)C2=C(CC(C)(C)CC2=O)NC2N=NC(C(F)(F)F)=C21 (stereo unspecified) [US20250313563, Compound 945529] |
| < 100 nM | 100 to 1000 nM | CC[C@@]1(c2cccc(N(C)c3cccc(C)n3)c2)C2=CN=NC2NC2=C1C(=O)CC(C)(C)C2 (stereo partly specified) [US20250313563, Compound 932664] |
| 100 to 1000 nM | 1000 to 5000 nM | CC[C@]1(c2cccc(-c3ccnc(OC)c3F)c2)C2=CN=NC2NC2=C1C(=O)NC(C)(C)C2 (stereo partly specified) [US20250313563, Compound 948520] |
| < 100 nM | 100 to 1000 nM | CC[C@]1(c2ccccc2)C2=CN=NC2NC2=C1C(=O)[C@H](F)C(C)(C)C2 (stereo partly specified) [US20250313563, Compound 826768] |
| < 100 nM | < 100 nM | CCC1(c2cccc(S(C)(=O)=O)c2)C2=CN=NC2NC2=C1C(=O)NC(C)(C)C2 (stereo unspecified) [US20250313563, Compound 944020] |
| 100 to 1000 nM | 100 to 1000 nM | C[C@@H]1C[C@H](C)C[C@@]2(C1)C1=C(N=NC1)NC1=C2C(=O)CC(C)(C)C1 [US20250313563, Compound 884114] |
| 100 to 1000 nM | > 5000 nM | CCC1(c2cccc(C(F)(F)F)c2)C2=CN=NC2NC2=C1C(=O)NCC2 (stereo unspecified) [US20250313563, Compound 870263] |
| < 100 nM | 100 to 1000 nM | CCC1(c2cccc(N(C)c3cc(C)cc(C)n3)c2)C2=CN=NC2NC2=C1C(=O)CC(C)(C)C2 (stereo unspecified) [US20250313563, Compound 943538] |
| < 100 nM | 100 to 1000 nM | CCC1(c2cccc(-c3ccncc3)c2)C2=CN=NC2NC2=C1C(=O)CC(C)(C)C2 (stereo unspecified) [US20250313563, Compound 791271] |
| 100 to 1000 nM | 1000 to 5000 nM | CC[C@H]1C[C@]2(CO1)C1=C(N=NC1)NC1=C2C(=O)CC(C)(C)C1 [US20250313563, Compound 913214] |
| > 5000 nM | > 5000 nM | CC1(C)CC(=O)C2=C(C1)NC1=C(CN=N1)C21CCCNCC1 (stereo unspecified) [US20250313563, Compound 889571] |
| < 100 nM | < 100 nM | CC1(C)CC(=O)C2=C(C1)NC1N=NC(Br)=C1C21CCc2c(F)cccc21 (stereo unspecified) [US20250313563, Compound 801358] |
| 100 to 1000 nM | 1000 to 5000 nM | CC[C@]1(c2cccc(-c3ccnc(C)c3F)c2)C2=CN=NC2NC2=C1C(=O)NC(C)(C)C2 (stereo partly specified) [US20250313563, Compound 948311] |
| > 5000 nM | > 5000 nM | CC[C@]1(c2cccc(-c3ccnc(C)c3)c2)C2=CN=NC2NC2=C1C(=O)[C@H](F)C(C)(C)C2 (stereo partly specified) [US20250313563, Compound 945485] |
| 100 to 1000 nM | > 5000 nM | CC[C@@]1(c2cccc(-c3cc(C(C)(C)C)nn3C)c2)C2=CN=NC2NC2=C1C(=O)NC(C)(C)C2 (stereo partly specified) [US20250313563, Compound 951843] |
| < 100 nM | < 100 nM | CC[C@@]1(c2cccc(-c3c(C)nn(C)c3C)c2)C2=C(CC(C)(C)NC2=O)NC2N=NC(C(F)(F)F)=C21 (stereo partly specified) [US20250313563, Compound 948421] |
| 1000 to 5000 nM | > 5000 nM | CCC1(c2ccccc2)C2=C(N=NC2)NC2=C1C(=O)C1CCC21 (stereo unspecified) [US20250313563, Compound 861716] |
| < 100 nM and 100 to 1000 nM | < 100 nM and 1000 to 5000 nM | CC1(C)CC(=O)C2=C(C1)NC1=C(CN=N1)C21CCN(S(=O)(=O)c2cnc3cccnn23)CC1 [US20250313563, Compound 948120] |

| IC50 [1] | IC50 [2] | SMILES |
| --- | --- | --- |
| > 5000 nM | > 5000 nM | CC(C)N1CC2(C1)C1=C(N=NC1)NC1=C2C(=O)CC(C)(C)C1 [US20250313563, Compound 932650] |
| < 100 nM | 100 to 1000 nM | CCC1(c2cccc(N(C)C(=O)CN3CCCC3)c2)C2=CN=NC2NC2=C1C(=O)CC(C)(C)C2 (stereo unspecified) [US20250313563, Compound 913125] |
| < 100 nM | 100 to 1000 nM | CC1(C)CC(=O)C2=C(C1)NC1N=NC=C1C21CCCN(S(=O)(=O)Cc2ccccc2)CC1 (stereo unspecified) [US20250313563, Compound 932632] |
| > 5000 nM | > 5000 nM | CC[C@@]1(c2cccc(Br)c2)C2=CN=NC2NC2=C1C(=O)C[C@H](C(F)(F)F)C2 (stereo partly specified) [US20250313563, Compound 826654] |
| < 100 nM | 1000 to 5000 nM | CCC1(c2cccc(Cc3ncccn3)c2)C2=CN=NC2NC2=C1C(=O)NC(C)(C)C2 (stereo unspecified) [US20250313563, Compound 950151] |
| < 100 nM | 100 to 1000 nM | CCC1(c2cccc(-c3ccncc3F)c2)C2=C(CC(C)(C)NC2=O)NC2N=NC(F)=C21 (stereo unspecified) [US20250313563, Compound 948999] |
| < 100 nM | 100 to 1000 nM | CC1(C)CC(=O)C2=C(C1)NC1=C(CN=N1)C21CCN(S(=O)(=O)c2ccccc2C(F)(F)F)CC1 [US20250313563, Compound 945667] |
| < 100 nM | 100 to 1000 nM | CC[C@]1(c2cccc(C(F)(F)F)c2)C2=CN=NC2NC2=C1C(=O)NC[C@H]2C (stereo partly specified) [US20250313563, Compound 945383] |
| < 100 nM | 100 to 1000 nM | CC1(C)CC(=O)C2=C(C1)NC1=C(CN=N1)C21CCCSCC1 (stereo unspecified) [US20250313563, Compound 913126] |
| < 100 nM and 100 to 1000 nM | < 100 nM and 100 to 1000 nM | CC1(C)CC(=O)C2=C(C1)NC1=C(CN=N1)C21CCN(S(=O)(=O)c2cc(F)ccc2F)CC1 [US20250313563, Compound 948121] |
| > 5000 nM | > 5000 nM | CC[C@]1(c2cccc(-c3cc(OC)nc4ccccc34)c2)C2=CN=NC2NC2=C1C(=O)NC(C)(C)C2 (stereo partly specified) [US20250313563, Compound 948647] |
| < 100 nM | < 100 nM | CC1(C)CC(=O)C2=C(C1)NC1=C(CN=N1)C21CCC(c2ccccc2)CC1 (stereo unspecified) [US20250313563, Compound 874975] |
| < 100 nM | 100 to 1000 nM | O=C1CC2(CCOC2)CC2=C1C1(CCOCC1)C1=C(N=NC1)N2 (stereo unspecified) [US20250313563, Compound 889573] |
| < 100 nM | < 100 nM | CCC1(c2cccc(C(F)F)c2)C2=C(CC(C)(C)NC2=O)NC2N=NC(C(F)(F)F)=C21 (stereo unspecified) [US20250313563, Compound 948305] |
| 1000 to 5000 nM | 100 to 1000 nM | CC1(C)CC(=O)C2=C(C1)NC1N=NC(C(F)(F)F)=C1[C@@]21CCc2c(F)cccc21 (stereo partly specified) [US20250313563, Compound 806568] |
| < 100 nM | < 100 nM | CCC1(c2cccc(Oc3ncccn3)c2)C2=C(CC(C)(C)NC2=O)NC2N=NC(Cl)=C21 (stereo unspecified) [US20250313563, Compound 950318] |
| < 100 nM | < 100 nM | CC1(C)CC(=O)C2=C(C1)NC1=C(CN=N1)C21COC2(CN(C(=O)c3ccccc3)C2)C1 (stereo unspecified) [US20250313563, Compound 917231] |
| < 100 nM | < 100 nM | CC1(C)CC(=O)C2=C(C1)NC1=C(CN=N1)C21CCN(S(C)(=O)=O)C1 (stereo unspecified) [US20250313563, Compound 912092] |
| < 100 nM | < 100 nM | CCC1(c2cccc(S(=O)(=O)C3CC(F)(F)C3)c2)C2=CN=NC2NC2=C1C(=O)CC(C)(C)C2 (stereo unspecified) [US20250313563, Compound 944019] |
| 100 to 1000 nM | 100 to 1000 nM | CC[C@]1(c2cccc(-c3cnn4c3CCCC4)c2)C2=C(CC(C)(C)NC2=O)NC2N=NC(C(F)(F)F)=C21 (stereo partly specified) [US20250313563, Compound 948772] |
| < 100 nM | < 100 nM | CCC1(c2cccc(-c3ccnc(C)c3C)c2)C2=CN=NC2NC2=C1C(=O)CC(C)(C)C2 (stereo unspecified) [US20250313563, Compound 913347] |
| < 100 nM and 100 to 1000 nM | < 100 nM and 1000 to 5000 nM | CC[C@@]1(c2cccc(-c3cc(C)ncc3F)c2)C2=C(CC(C)(C)NC2=O)NC2N=NC(C(F)(F)F)=C21 (stereo partly specified) [US20250313563, Compound 949650] |
| < 100 nM and 100 to 1000 nM | < 100 nM and 1000 to 5000 nM | CC[C@]1(c2cccc(C3CCC3)c2)C2=CN=NC2NC2=C1C(=O)CC(C)(C)C2 (stereo partly specified) [US20250313563, Compound 949521] |
| 1000 to 5000 nM | 1000 to 5000 nM | CC1(C)CC(=O)C2=C(C1)NC1N=NC=C1C21CCCN(c2ccncn2)CC1 (stereo unspecified) [US20250313563, Compound 917145] |
| < 100 nM | < 100 nM and 1000 to 5000 nM | CC[C@]1(c2cccc(-c3ccnn3C)c2)C2=CN=NC2NC2=C1C(=O)CC(C)(C)[C@H]2F (stereo partly specified) [US20250313563, Compound 957507] |
| < 100 nM | 100 to 1000 nM | CCC(C)C(=O)N1CC2(C1)CC1(CO2)C2=C(N=NC2)NC2=C1C(=O)CC(C)(C)C2 (stereo unspecified) [US20250313563, Compound 947270] |
